The record followed here is patent US8163755B2, “Hexahydrooxazinopterine compounds” (Takeda Pharmaceutical Company Limited, priority 2009, dated 2012).

Counter-ions that a name gives are not always drawn.

This assay has as its target T1, human mTOR (Homo sapiens, UniProt P42345).
T1 construct: purchased Invitrogen
As to the kind of experiment: Inhibition of mTOR (Example A, LanthaScreen TR-FRET, GFP-4E-BP1 substrate). In kind it is biochemical. The note with it: inhibition of human mTOR in the assay of Example A. As to the method:
Example A Inhibition of mTOR
Purified mTOR are purchased from Invitrogen. mTOR activity was determined using Invitrogen's LanthaScreen system. The inhibitory properties of compounds relative to mTOR may be determined using a black 384-well-plate format in the following buffer 50 mM Hepes, 10 mM NaCl, 10 mM MgCl2, 0.2 mM EDTA, 0.01% Brij35, 2 mM DTT at pH7.3. The test compound is prepared in DMSO using 2 fold serial dilutions for 11 data points which are added to the buffer so that each dilution contains 3% DMSO.
An Assay for mTOR Inhibition is as Follows:
Combine in each well 2 μl of 1.2 μM GFP-4E-BP1 (Invitrogen) and 150 μM ATP (in buffer), 2 μl of diluted test compound (3% DMSO in buffer), and 2 μl of 6 nM mTor in buffer. The reaction mixture is then incubated at room temperature for 30 min, and quenched by adding 40 mM ETDA with 4 nM Tb-anti-p4E-BP1 [pThr46] antibody in TR-FRET dilution buffer (Invitrogen). The plate is kept at room temperature for 1 hour and then read using PheraStar (BMG labtech) LanthaScreen mode.
pIC50 values, the negative of the log of the IC50, are calculated by non-linear curve fitting of the compound concentrations and percent of inhibition to the standard pIC50 equation.
(In general: In TR-FRET formats the signal depends on donor and acceptor labels being close together.)
What is called IC50 is the midpoint of a concentration-inhibition curve. A low value points to greater potency. Take `CNC(=O)Nc1ccc(-c2ncc3c(n2)N2CCOCC2(C)C(=O)N3C2CC2)cc1` (stereo not drawn) [Example 17, 1-(4-(5-cyclopropyl-6a-methyl-6-oxo-5,6,6a,7,9,10-hexahydro-[1,4]oxazino[3,4-h]pteridin-2-yl)phenyl)-3-methylurea]: the IC50 is 0.0316 to 1 µM.

`CCNC(=O)Nc1ccc(-c2ncc3c(n2)N2CCOCC2(C)C(=O)N3CC2CC2)cc1` (stereo not drawn) [Example 5, 1-(4-(5-(cyclopropylmethyl)-6a-methyl-6-oxo-5,6,6a,7,9,10-hexahydro-[1,4]oxazino[3,4-h]pteridin-2-yl)phenyl)-3-ethylurea, TFA salt]: the 50% inhibitory concentration (IC50) was less than 0.0316 µM.

`CNC(=O)Nc1ccc(-c2ncc3c(n2)N2CCOCC2(C)C(=O)N3C[C@H](O)CO)cc1` (stereo partly drawn) [Example 22, 1-(4-(5-((S)-2,3-dihydroxypropyl)-6a-methyl-6-oxo-5,6,6a,7,9,10-hexahydro-[1,4]oxazino[3,4-h]pteridin-2-yl)phenyl)-3-methylurea] gave a concentration for half-maximal inhibition (IC50) of 0.0316 to 1 µM. The same measure for `CNC(=O)Nc1ccc(-c2ncc3c(n2)N2CCOCC2(C)C(=O)N3C(C)(C)C(=O)O)cc1` (stereo not drawn) [Example 20, 2-methyl-2-(6a-methyl-2-(4-(3-methylureido)phenyl)-6-oxo-6a,7,9,10-tetrahydro-[1,4]oxazino[3,4-h]pteridin-5(6H)-yl)propanoic acid TFA salt]: greater than 1 µM. In turn, `CNC(=O)Nc1ccc(-c2ncc3c(n2)N2CCOCC2(C)C(=O)N3CC(C)(C)C)cc1` (stereo not drawn) [Example 28, 1-methyl-3-(4-(6a-methyl-5-neopentyl-6-oxo-5,6,6a,7,9,10-hexahydro-[1,4]oxazino[3,4-h]pteridin-2-yl)phenyl)urea] had a half-maximal inhibitory concentration (IC50) of less than 0.0316 µM. Compound `CNC(=O)Nc1ccc(-c2ncc3c(n2)N2CCO[C@@H](C)[C@@]2(C)C(=O)N3CC2CC2)cc1` [Example 18, 1-(4-((6aS,7S)-5-(cyclopropylmethyl)-6a,7-dimethyl-6-oxo-5,6,6a,7,9,10-hexahydro-[1,4]oxazino[3,4-h]pteridin-2-yl)phenyl)-3-methylurea] showed a half-inhibitory concentration (IC50) of less than 0.0316 µM.

`CNC(=O)Nc1ccc(-c2ncc3c(n2)N2CCOC[C@@]2(C)C(=O)N3CC2CC2)cc1` [Example 4, (S)-1-(4-(5-(cyclopropylmethyl)-6a-methyl-6-oxo-5,6,6a,7,9,10-hexahydro-[1,4]oxazino[3,4-h]pteridin-2-yl)phenyl)-3-methylurea] showed an IC50 of 0.0316 to 1 µM.

As to `C[C@@]12COCCN1c1nc(-c3ccc(NC(=O)NC4CC4)cc3)ncc1N(CC1CC1)C2=O` [Example 9, (S)-1-cyclopropyl-3-(4-(5-(cyclopropylmethyl)-6a-methyl-6-oxo-5,6,6a,7,9,10-hexahydro-[1,4]oxazino[3,4-h]pteridin-2-yl)phenyl)urea], the IC50 is less than 0.0316 µM. `CNC(=O)Nc1ccc(-c2ncc3c(n2)N2CCOC[C@]2(C)C(=O)N3CC2CC2)cc1` [Example 3, (R)-1-(4-(5-(cyclopropylmethyl)-6a-methyl-6-oxo-5,6,6a,7,9,10-hexahydro-[1,4]oxazino[3,4-h]pteridin-2-yl)phenyl)-3-methylurea] showed an IC50 of less than 0.0316 µM.

`CC12COCCN1c1nc(-c3ccc(NC(=O)NC4CC4)cc3)ncc1N(C1CCS(=O)(=O)CC1)C2=O` (stereo not drawn) [Example 45, 1-cyclopropyl-3-(4-[5-(1,1-dioxidotetrahydro-2H-thiopyran-4-yl)-6a-methyl-6-oxo-5,6,6a,7,9,10-hexahydro[1,4]oxazino[3,4-h]pteridin-2-yl]phenyl)urea] had a half-maximal inhibitory concentration (IC50) of 0.0316 to 1 µM. The same measure for `CC(F)(F)CN1C(=O)C2(C)COCCN2c2nc(-c3ccc(NC(=O)NC4CC4)cc3)ncc21` (stereo not drawn) [Example 47, 1-cyclopropyl-3-(4-(5-(2,2-difluoropropyl)-6a-methyl-6-oxo-5,6,6a,7,9,10-hexahydro-[1,4]oxazino[3,4-h]pteridin-2-yl)phenyl)urea]: less than 0.0316 µM; for `CNC(=O)Nc1ccc(-c2ncc3c(n2)N2CCOC[C@]2(C)C(=O)N3C[C@H](O)CO)cc1` [Example 24]: greater than 1 µM.
